These results are taken from article PMC3536784, “Structural Characterization of Pandoraea pnomenusa B-356 Biphenyl Dioxygenase Reveals Features of Potent Polychlorinated Biphenyl-Degrading Enzymes” (PLoS ONE, 2013).

Experiment [1] addresses T1, BPDOB356 (biphenyl dioxygenase, oxygenase component BphAE) (Comamonas testosteroni, UniProt Q46372).
T1 construct: gene bphA; heterologously produced, purified anaerobically; heterohexamer (alpha-beta)3; Rieske [2Fe-2S] and mononuclear Fe(II); 18 N-terminal alpha residues disordered; with Biphenyl dioxygenase subunit beta
Kind of experiment: O2 consumption, Clark-type oxygen electrode. It is filed as biochemical. The following applies: apparent; air-saturated 50 mM MES pH 6.0; NADH 123 µM; BphG B356 and BphF LB400 as electron transfer partners; Fe(II) added; partly uncoupled; read-out: 2,2′-Dichlorobiphenyl / Km /. From the text:
O2 consumption, Clark-type oxygen electrode on BPDOB356 (biphenyl dioxygenase, oxygenase component BphAE)

Experiment [2] concerns the target T2, BPDOB356 (biphenyl dioxygenase, oxygenase component BphAE) (Comamonas testosteroni, UniProt Q46372, M231T).
T2 construct: gene bphA
Kind of experiment: O2 consumption, Clark-type oxygen electrode. To be noted: read-out: 2,2′-Dichlorobiphenyl / Km /; apparent; air-saturated 50 mM MES pH 6.0; NADH 123 µM; BphG B356 and BphF LB400 as electron transfer partners; Fe(II) added; partly uncoupled.

The target of experiment [3] is T3, BPDOB356 (biphenyl dioxygenase, oxygenase component BphAE) (Comamonas testosteroni, UniProt Q46372, M231A).
T3 construct: gene bphA
T3 sequence (Q46372 whole entry M231A): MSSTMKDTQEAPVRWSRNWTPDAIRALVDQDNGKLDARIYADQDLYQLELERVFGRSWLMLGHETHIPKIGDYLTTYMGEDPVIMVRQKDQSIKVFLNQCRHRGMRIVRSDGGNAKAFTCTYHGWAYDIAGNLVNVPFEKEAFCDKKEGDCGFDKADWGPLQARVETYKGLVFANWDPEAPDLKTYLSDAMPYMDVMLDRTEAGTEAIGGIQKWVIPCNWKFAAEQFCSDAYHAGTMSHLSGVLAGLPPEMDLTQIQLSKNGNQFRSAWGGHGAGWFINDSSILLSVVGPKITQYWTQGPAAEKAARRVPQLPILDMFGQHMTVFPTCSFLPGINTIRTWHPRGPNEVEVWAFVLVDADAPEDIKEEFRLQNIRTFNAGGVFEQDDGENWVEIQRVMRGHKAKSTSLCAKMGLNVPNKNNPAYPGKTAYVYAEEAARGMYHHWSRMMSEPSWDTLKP
T3 sequence (Q46373 whole entry partner): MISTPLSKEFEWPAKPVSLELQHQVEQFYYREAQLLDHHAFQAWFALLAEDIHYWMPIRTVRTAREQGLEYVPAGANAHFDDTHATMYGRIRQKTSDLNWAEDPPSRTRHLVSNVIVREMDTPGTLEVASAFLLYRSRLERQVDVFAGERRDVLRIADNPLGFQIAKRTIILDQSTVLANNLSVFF
Kind of experiment: O2 consumption, Clark-type oxygen electrode. To be noted: read-out: 2,2′-Dichlorobiphenyl / Km /; apparent; air-saturated 50 mM MES pH 6.0; NADH 123 µM; BphG B356 and BphF LB400 as electron transfer partners; Fe(II) added; partly uncoupled.

In experiment [4] the target is T1, BPDOB356 (biphenyl dioxygenase, oxygenase component BphAE). Kind of experiment: X-ray crystal structure of complex, […] Å. The class given is binding. To be noted: biphenyl powder soaked into crystals 24 h, anaerobic; MES pH 6.0; alpha-subunit active site near Fe(II).

T1 sequence (Q46372 whole entry): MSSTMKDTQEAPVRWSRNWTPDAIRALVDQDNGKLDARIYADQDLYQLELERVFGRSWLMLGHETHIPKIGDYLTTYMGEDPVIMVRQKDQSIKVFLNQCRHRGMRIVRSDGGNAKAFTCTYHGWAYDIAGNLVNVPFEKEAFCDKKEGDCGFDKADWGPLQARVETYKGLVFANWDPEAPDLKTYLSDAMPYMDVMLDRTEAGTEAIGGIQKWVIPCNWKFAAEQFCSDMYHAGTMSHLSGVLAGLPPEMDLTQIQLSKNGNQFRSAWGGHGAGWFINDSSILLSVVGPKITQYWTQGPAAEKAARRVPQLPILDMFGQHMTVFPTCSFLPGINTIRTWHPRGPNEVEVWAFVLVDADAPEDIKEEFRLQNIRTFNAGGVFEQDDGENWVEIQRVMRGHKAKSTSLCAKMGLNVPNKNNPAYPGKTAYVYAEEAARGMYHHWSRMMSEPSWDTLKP
T1 sequence (Q46373 whole entry partner): as the sequence (Q46373 whole entry partner) above
T2 sequence (Q46372 whole entry M231T): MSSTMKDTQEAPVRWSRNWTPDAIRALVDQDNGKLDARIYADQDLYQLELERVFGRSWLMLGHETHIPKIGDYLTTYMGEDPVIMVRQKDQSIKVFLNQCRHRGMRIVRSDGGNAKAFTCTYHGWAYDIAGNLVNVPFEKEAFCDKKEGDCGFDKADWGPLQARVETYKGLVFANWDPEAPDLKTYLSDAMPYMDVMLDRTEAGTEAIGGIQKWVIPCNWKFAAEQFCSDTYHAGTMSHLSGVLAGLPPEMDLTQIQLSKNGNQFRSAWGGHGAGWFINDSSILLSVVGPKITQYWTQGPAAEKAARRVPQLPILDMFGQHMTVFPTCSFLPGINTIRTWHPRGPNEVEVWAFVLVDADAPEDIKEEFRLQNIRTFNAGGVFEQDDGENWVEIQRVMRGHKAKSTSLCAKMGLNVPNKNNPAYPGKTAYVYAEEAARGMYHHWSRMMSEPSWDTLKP
T2 sequence (Q46373 whole entry partner): as the sequence (Q46373 whole entry partner) above

Regarding `Clc1ccccc1-c1ccccc1Cl` [2,2′-dichlorobiphenyl], the figures for the Km in experiment [1], in experiment [2] and in experiment [3] were 1.1 µM, 6.4 µM and 5.7 µM, respectively.
On to `c1ccc(-c2ccccc2)cc1` [biphenyl], for which the “X-ray crystal structure of complex, 1.6 Å” value in experiment [4] is 3GZY (BPDOB356) and 3GZX (BPDOB356•biphenyl complex).
